Columns and labels:
B16F10 cells [1] = experiment: Growth rate by Trypan blue exclusion, drug scheduling and progenies; type: cell-based, murine
Method: The standard methanethiosulfonate (MTS)-3-(4,5-dimethylthiazol-2-yl)-5-(3-carboxymethoxyphenyl)-2-(4-sulphophenyl)-2H-tetrazolium inner salt solution assay was performed in order to examine the cytotoxic/cytostatic effect of GC2 on melanoma cells. Briefly, 7.5×10^3 cells were seeded in 96-well microtiter plates (Nunc). After an overnight incubation, serial dilutions of GC2 or DTIC were added in triplicate to a final volume of 100 μl. The blank was represented by a culture medium without cells containing the highest GC2 or DTIC concentration. After 24 h of incubation 20 μl MTS was added to each well and all samples were incubated for 3 h at 37° C. An absorbance of each well was read at 450 nm in a microplate reader. A percentage of cell viability was calculated considering that 100% cell viability was represented by an absorbance of untreated samples (blank absorbance). Alternatively, the number of viable cells was determined by Trypan blue exclusion test. Melanoma cells treated with GC2 were trypsinized and cells negative for blue staining (viable cells) were counted using a hemocytometer.
In order to be successful, chemotherapy schedule can be set based on a type of targeted cells, a rate, at which the cells divide, and a time, at which a given drug is likely to be effective. Melanoma cells have versatile mechanisms to survive treatments with most chemotherapeutical drugs. Whether a specific scheduling of GC2 therapy is important was investigated by studying how a growth rate of melanoma cells is affected by incubation with a single dose of GC2 for a prolonged time period and with multiple GC2 doses freshly added every 24 h. Because of its high proliferation rate, a metastatic cell line B16F10 was selected for these experiments. The cells were cultured for 72 h under the following conditions: 1) in the absence of GC2 (control sample-C), 2) with a single GC2 dose of 6.0 μM (sample-S), and 3) with multiple GC2 doses of 6.0 μM freshly added every 24 h ([…]). A number of viable cells was determined by Trypan blue exclusion test and a growth rate was calculated in order to estimate an anti-proliferative effect of GC2. Under normal drug-free conditions, B16F10 cells approximately double their number every 24 h (FIG. 4A). Incubation with a single dose of GC2 decreased the growth rate from 2.29 to 1.26 for 24 h incubation and from 7.26 to 3.7 for 72 h incubation. […] Cells treated with GC2 freshly added every 24 h had the lowest growth rate of 2.02.
Equal numbers of B16F10 cells previously cultured for 72 h 1) without GC2 (C), 2) in the presence of a single GC2 dose of 6 μM (S) or 3) multiple GC2 doses of 6 μM freshly added every 24 h (S*) were further incubated either without GC2 (0 μM) or with a lower GC2 concentration (3 μM). At the end of a 48 h incubation period a number of viable cells was determined by Trypan blue exclusion test and a percentage of cell growth was calculated considering a cell number cultured with 3 μM of GC2 for 48 h to be 100%. Cells cultured with a single dose of GC2 for 72 h followed by 48 h without the drug proliferated at a rate of 99%. The rate decreased to 70% after the additional 48 h incubation of these cells in the presence of 3 μM GC2 (FIG. 4C). […] The lowest growth rate, (5%) was registered for the cells previously exposed to multiple doses of freshly added drug for 72 h and then further grown for 48 h in the presence of 3 μM GC2.

B16F10 cells [2] = experiment: Annexin V/PI double labeling, flow cytometry, B16F10; type: cell-based, murine; conditions: B16F10, 6 μM
Method: Apoptosis in GC2-treated melanoma cells was detected using Annexin V and PI double labeling assay, see van Engeland, M., et al., Cytometry, 31, 1-9, 1998. Annexin V/PI labeling was applied to both fluorescence microscopy and flow cytometry following the protocol supplied by the manufacturer. Briefly, for fluorescence microscopy analysis adherent cells (approximately 16×10^4) treated with GC2 were washed with annexin V binding buffer, and incubated with Alexa Fluor® 488 Annexin V (5 μl in 1 ml annexin V binding buffer) for 15 min at RT, in the dark, to which 0.2 μg PI was added. Live cells were washed with annexin V binding buffer and examined by microscopy. For flow cytometric analysis, cells treated with GC2 were harvested by trypsinisation and a number of viable cells was counted. 16×10^4 cells were re-suspended in 0.2 ml annexin V binding buffer and treated in the same were adherent cells. Finally, labeled cells were analyzed with a FACScan™ using CellQuest™ software (Becton Dickinson, San Jose, Calif.).
Cells cultured under normal conditions for 24 h were further treated for 5 h, 8 h or 24 h with 6 μM of GC2, labeled with annexin V and PI and quantitatively analyzed by flow cytometry for viable, apoptotic and necrotic populations (FIG. 7).

MelJuSo cells = experiment: Autophagic vesicle detection with GFP-LC3; type: cell-based, human; conditions: MelJuSo transfected with GFP-LC3, 6 μM
Method: LC3 is a protein recruited to an autophagosome membrane. The recruitment process is essential for autophagy and LC3 is a specific marker of the process, see Kabeya Y., et al., EMBO J. 19, 5720-5728, 2000. […] Cells were transiently transfected with GFP-LC3 plasmid DNA using the liposomal transfection kit Lipofectamine PLUS™ Reagent (Gibco-BRL) as described in Negroiu, G., et al., J. Biol. Chem. 278, 27035-27042, 2003. 24 h after transfection cells were treated with GC2 for the indicated time periods and analyzed by fluorescence microscopy.
The localization of LC3 (microtubule-associated protein1 light chain 3), which is an established marker for autophagosome membranes, see e.g. Kabeya, Y., et al. EMBO J., 19, 5720-5728, 2000, was examined in cells treated with GC2. LC3 is newly synthetised and recruited to autophagosomal membranes when autophagy is activated and is detected as cup- and ring shaped structures, see e.g. Mizushima, N. et al. Int. J. Biochem. & Cell Biol. 36, 2491-2502, 2004. […] In GC2-treated MNT-1 cells, very few vacuoles were observed by a phase contrast microscopy. The MNT-1 cell line was also the least positive for autophagic marker (data not shown).

CC(=O)O.CCCCCCCCCN1[C@@H](CO)[C@@H](O)[C@H](O)[C@@H]1CCCCCCCC [GC2, (2S,3R,4R,5S)-3,4-dihydroxy-N-nonyl-5-octyl-2 hydroxymethylpyrrolidinium acetate]
activity at 3 µM (B16F10 cells [1]; Mus musculus, B16-F10, multiple 6 μM doses 72 h, then 48 h with 3 μM GC2, read-out: growth rate of progenies (% of control growth)): 5% | activity at 6 µM (B16F10 cells [1]; Mus musculus, B16-F10, single 6 μM dose 72 h, then 48 h without drug, read-out: proliferation rate of progenies (% of control growth)): 99% | proliferation rate of progenies (% of control growth) (B16F10 cells [1]; multiple 6 μM doses 72 h, then 48 h without drug): 43% | growth rate (ratio of cell number to initial cell number) (B16F10 cells [1]; multiple 6.0 μM doses freshly added every 24 h, 72 h, control 7.26): 2.02 | proliferation rate of progenies (% of control growth) (B16F10 cells [1]; single 6 μM dose 72 h, then 48 h with 3 μM GC2): 70% | growth rate (ratio of cell number to initial cell number) (B16F10 cells [1]; single dose 6.0 μM, 24 h incubation, control 2.29): 1.26 | growth rate (ratio of cell number to initial cell number) (B16F10 cells [1]; single dose 6.0 μM, 72 h incubation, control 7.26): 3.7 | number of viable, apoptotic or necrotic cells (B16F10 cells [2]; 5 h): did not change significantly | increase of apoptotic cells versus control (factor) (B16F10 cells [2]; 8 h): 1.7 | increase of necrotic fraction versus control (B16F10 cells [2]; 8 h): approximately doubled | apoptotic cells (B16F10 cells [2]; 8 h, control 1.95%): 3.44% | necrotic fraction (B16F10 cells [2]; 8 h, control 4.28%): 8.78% | increase of apoptotic cells versus control (factor) (B16F10 cells [2]; 24 h): 2.9 | increase of necrotic fraction versus control (factor) (B16F10 cells [2]; 24 h): 4.4 | apoptotic cells (B16F10 cells [2]; 24 h, control 2.28%): 6.72% | necrotic fraction (B16F10 cells [2]; 24 h, control 4.95%): 22.16% | GFP-LC3 distribution (autophagic marker) (MelJuSo cells): punctate pattern of bright fluorescence
